Reference: US8507510B2, “Sulfoximine-substituted pyrimidines as CDK- and/or VEGF inhibitors, their production and use as pharmaceutical agents” (Bayer Intellectual Property GmbH, priority 2003, dated 2013)

Assays:
H460 = assay: Proliferation assay, H460; format: cell-based, human; details: Homo sapiens, NCI-H460, 96 h, H460 cells, 4 days, crystal violet
From the text: (§1) Cultivated human tumor cells (MCF7, […] human breast cancer cells, related to ATCC HTB22; NCI-H460, human non-small-cell lung cancer cells, ATCC HTB-177, HCT 116, human colon cancer cells, ATCC CCL-247; DU 145, hormone-independent human prostate cancer cells, ATCC HTB-81; MaTu-MDR, hormone-independent, multiple pharmaceutical agent-resistant human breast cancer cells, EPO-GmbH, Berlin) were flattened out at a density of about 5000 cells/measuring point, depending on the growth rate of the respective cells, in a 96-well multititer plate in 200 μl of the corresponding growth medium. After 24 hours, the cells of one plate (zero-point plate) were colored with crystal violet (see below), while the medium of the other plates was replaced by fresh culture medium (200 μl), to which the test substances were added in various concentrations (0 μm, as well as in the range of 0.01-30 μm; the final concentration of the solvent dimethyl sulfoxide was 0.5%). The cells were incubated for 4 days in the presence of test substances. The cell proliferation was determined by coloring the cells with crystal violet: the cells were fixed by adding 20 μl/measuring point of an 11% glutaric aldehyde solution for 15 minutes at room temperature. After three washing cycles of the fixed cells with water, the plates were dried at room temperature. The cells were colored by adding 100 μl/measuring point of a 0.1% crystal violet solution (the pH was set at 3 by adding acetic acid). After three washing cycles of the colored cells with water, the plates were dried at room temperature. The dye was dissolved by adding 100 μl/measuring point of a 10% acetic acid solution. The extinction was determined by photometry at a wavelength of 595 nm The change of cell growth, in percent, was calculated by normalization of the measured values to the extinction values of the zero-point plate (=0%) and the extinction of the untreated (0 μm) cells (=100%).

MaTu-ADR = assay: Proliferation assay, MaTu-ADR; format: cell-based, human; details: Homo sapiens, 96 h, MaTu-ADR cells, 4 days, crystal violet
From the text: as §1

VEGF-R2 = VEGF-R2 (Homo sapiens (Human), UniProt P35968); assay: VEGF receptor-2 kinase assay; format: biochemical; details: poly-(Glu4Tyr) substrate, 8 μmol ATP
Sequence of VEGF-R2 (P35968 20-1356, species assumed): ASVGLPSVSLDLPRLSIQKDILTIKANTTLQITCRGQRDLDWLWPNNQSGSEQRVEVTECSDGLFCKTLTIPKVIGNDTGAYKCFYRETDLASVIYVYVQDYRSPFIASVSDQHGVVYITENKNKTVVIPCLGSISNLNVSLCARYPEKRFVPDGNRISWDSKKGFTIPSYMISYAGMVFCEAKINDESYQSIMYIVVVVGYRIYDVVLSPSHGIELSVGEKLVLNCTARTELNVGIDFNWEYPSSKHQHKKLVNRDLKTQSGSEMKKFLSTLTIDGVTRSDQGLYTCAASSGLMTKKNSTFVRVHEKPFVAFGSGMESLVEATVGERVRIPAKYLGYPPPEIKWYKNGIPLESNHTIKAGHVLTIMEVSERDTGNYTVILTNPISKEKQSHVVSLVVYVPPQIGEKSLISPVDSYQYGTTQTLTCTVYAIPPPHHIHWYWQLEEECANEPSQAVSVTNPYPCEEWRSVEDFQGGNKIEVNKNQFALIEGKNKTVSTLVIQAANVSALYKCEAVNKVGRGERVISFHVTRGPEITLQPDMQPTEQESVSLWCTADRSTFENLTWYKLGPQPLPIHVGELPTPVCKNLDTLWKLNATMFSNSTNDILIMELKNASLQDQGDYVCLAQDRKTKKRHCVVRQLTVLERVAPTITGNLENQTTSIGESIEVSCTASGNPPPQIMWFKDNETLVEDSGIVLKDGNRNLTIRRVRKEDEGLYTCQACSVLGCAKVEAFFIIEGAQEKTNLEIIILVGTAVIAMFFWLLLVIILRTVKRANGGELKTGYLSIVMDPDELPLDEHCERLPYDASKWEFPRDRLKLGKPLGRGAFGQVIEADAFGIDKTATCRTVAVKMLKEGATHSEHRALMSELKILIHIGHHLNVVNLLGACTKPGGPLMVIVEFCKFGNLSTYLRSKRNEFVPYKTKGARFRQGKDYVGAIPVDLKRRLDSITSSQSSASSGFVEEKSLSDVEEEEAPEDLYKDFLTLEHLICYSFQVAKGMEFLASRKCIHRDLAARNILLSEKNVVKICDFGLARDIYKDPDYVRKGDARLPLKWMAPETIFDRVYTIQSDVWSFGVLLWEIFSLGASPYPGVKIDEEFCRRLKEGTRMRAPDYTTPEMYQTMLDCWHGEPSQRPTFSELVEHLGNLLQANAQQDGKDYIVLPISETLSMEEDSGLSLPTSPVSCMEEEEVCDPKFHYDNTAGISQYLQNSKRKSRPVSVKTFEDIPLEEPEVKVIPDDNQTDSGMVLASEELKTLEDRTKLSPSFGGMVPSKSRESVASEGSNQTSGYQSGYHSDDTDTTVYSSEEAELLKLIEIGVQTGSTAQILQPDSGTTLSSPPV
Method: Recombinant VEGF receptor tyrosine kinase-2 was purified as a GST fusion protein from baculovirus-infected insect cells (Sf9). Poly-(Glu4Tyr), which was used as a kinase substrate, was purchased by the Sigma Company.
VEGF receptor tyrosine kinase (90 ng/measuring point) was incubated for 10 minutes at 22° C. in the presence of various concentrations of test substances (0 μm, as well as within the range of 0.001-30 μm) in 30 μl of assay buffer [40 mmol of Tris/HCl, […], 10 mmol of MgCl2, 1 mmol of MnCl2, 3 μmol of Na ortho-vanadate, 1.0 mmol of dithiothreitol, 8 μmol of adenosine trisphosphate (ATP), 27 μg/measuring point of poly-(Glu4Tyr), 0.2 μCi/measuring point of 33P-gamma ATP, 1% dimethyl sulfoxide]. The reaction was stopped by adding EDTA solution (250 mmol, pH 7.0, 10 μl/measuring point).
(§2) From each reaction batch, 10 μl was applied to P30 filter strips (Wallac Company), and non-incorporated 33P-ATP was removed by subjecting the filter strips to three washing cycles for 10 minutes each in 0.5% phosphoric acid. After the filter strips were dried for one hour at 70° C., the filter strips were covered with scintillator strips (MeltiLex™ A, Wallac Company) and baked for one hour at 90° C. The amount of incorporated 33P (substrate phosphorylation) was determined by scintillation measurement in a gamma-radiation measuring device (Wallac).

DU145 = assay: Proliferation assay, DU145; format: cell-based, human; details: Homo sapiens, DU-145, 96 h, DU145 cells, 4 days, crystal violet
From the text: as §1

MCF7 = assay: Proliferation assay, MCF7; format: cell-based, human; details: Homo sapiens, MCF7, 96 h, MCF7 cells, 4 days, crystal violet
From the text: as §1

CDK1/CycB = CDK1/CycB (Homo sapiens (Human), UniProt P06493); assay: CDK1/CycB kinase assay; format: biochemical; details: histone IIIS substrate, 0.5 μm ATP
Sequence of CDK1/CycB (P06493 whole entry, the tested form may be a part): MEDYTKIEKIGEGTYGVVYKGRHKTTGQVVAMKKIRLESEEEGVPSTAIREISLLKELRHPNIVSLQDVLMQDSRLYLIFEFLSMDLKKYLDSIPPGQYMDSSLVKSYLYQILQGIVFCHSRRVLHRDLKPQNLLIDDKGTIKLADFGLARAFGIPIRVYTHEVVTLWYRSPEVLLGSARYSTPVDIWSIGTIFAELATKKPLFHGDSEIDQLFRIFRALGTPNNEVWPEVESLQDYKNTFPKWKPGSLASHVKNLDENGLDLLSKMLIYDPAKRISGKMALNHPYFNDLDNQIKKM
Sequence of CDK1/CycB (P14635 whole entry partner, the tested form may be a part): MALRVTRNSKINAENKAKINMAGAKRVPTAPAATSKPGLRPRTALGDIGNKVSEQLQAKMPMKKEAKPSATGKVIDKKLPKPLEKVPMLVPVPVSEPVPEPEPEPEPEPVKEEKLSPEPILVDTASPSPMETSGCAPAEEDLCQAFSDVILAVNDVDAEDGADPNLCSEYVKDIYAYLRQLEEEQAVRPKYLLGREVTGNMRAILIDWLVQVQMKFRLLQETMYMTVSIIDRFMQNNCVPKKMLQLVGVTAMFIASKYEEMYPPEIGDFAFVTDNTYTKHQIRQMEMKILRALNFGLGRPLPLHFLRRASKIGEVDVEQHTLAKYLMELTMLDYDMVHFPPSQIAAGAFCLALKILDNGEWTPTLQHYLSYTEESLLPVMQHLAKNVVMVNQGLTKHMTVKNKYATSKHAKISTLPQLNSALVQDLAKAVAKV
Method: Recombinant CDK1- and CycB-GST-fusion proteins, purified from baculovirus-infected insect cells (Sf9), were purchased from ProQinase GmbH, Freiburg. Histone IIIS, used as a kinase substrate, is available commercially from the Sigma Company.
The reaction was stopped by adding EDTA solution (250 mmol, pH 8.0, 14 μl/measuring point).
as §2

IC50 (H460): 200 nM
IC50 (VEGF-R2): 59 nM
IC50 (DU145): 300 nM
IC50 (MCF7): 180 nM
IC50 (CDK1/CycB): 25 nM
SMILES: C[C@@H](Nc1nc(Nc2ccc(S(=N)(=O)CCO)cc2)ncc1Br)C(C)(C)O (single isomer, unassigned) [Example 1.15]
IC50 (MaTu-ADR): 300 nM
